The results in this text go back to patent US10695322B2 (priority 2016, dated 2020).

The target in assay [1] is LdtMab1, wild-type (MAB_3165c, orthologue of LdtMt1) (Mycobacteroides abscessus, UniProt B1MDC1). In words: biochemical. The class given is binding, Mycobacterium abscessus. As to conditions: Figure 6; ITC, wt, protein 150 μM, ligand 2 mM, pH 8.0, 24° C.
In assay [2] the target is T1, LdtMt2, wild-type (L,D-transpeptidase of M. tuberculosis; fragment without N-terminal transmembrane domain, N-terminal His6, TEV-cleavable) (Mycobacterium tuberculosis, UniProt I6Y9J2).
T1 construct: Fragments excluding the putative transmembrane domain were cloned, expressed and purified; His6 (TEV-cleavable) (N); made in house; host or cells: E. coli BL21(DE3)
T1 sequence (I6Y9J2 56-408 limits assumed): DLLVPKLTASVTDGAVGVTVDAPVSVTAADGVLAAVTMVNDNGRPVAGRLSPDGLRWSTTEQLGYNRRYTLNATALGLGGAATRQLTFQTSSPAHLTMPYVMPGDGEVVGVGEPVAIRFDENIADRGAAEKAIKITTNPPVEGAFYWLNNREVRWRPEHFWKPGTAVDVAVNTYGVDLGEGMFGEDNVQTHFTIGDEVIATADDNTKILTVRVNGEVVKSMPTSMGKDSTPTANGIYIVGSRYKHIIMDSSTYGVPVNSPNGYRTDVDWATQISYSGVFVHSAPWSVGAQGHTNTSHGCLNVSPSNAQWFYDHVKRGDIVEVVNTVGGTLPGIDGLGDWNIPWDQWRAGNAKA
Kind of assay: biochemical. The class given is binding.

Assay [3] addresses T2, LdtMab1 (Mycobacteroides abscessus, UniProt B1MDC1). In words: UPLC-MS analysis of protein-drug adducts, LdtMab1. The class given is binding, M. abscessus.
Assay [4] relates to LdtMab2. In words: UPLC-MS analysis of protein-drug adducts, LdtMab2. The assay is classed as binding, M. abscessus. As to conditions: for reaction and covalent adduct formation: evolved carbapenem alone.
The subject of the next assay is LdtKp. Kind of assay: UPLC-MS analysis of protein-drug adducts, LdtKp. The assay is classed as binding, K. pneumoniae.
The subject of a further assay is LdtCl. Kind of assay: UPLC-MS analysis of protein-drug adducts, LdtCl. As to conditions: for reaction and covalent adduct formation: evolved carbapenem alone. The class given is binding, E. cloacae. The protocol:
Ultra-performance liquid chromatography-high resolution mass spectrometry (UPLC-MS) with a Waters Acquity H-Class system utilizing a Waters Acquity BEH-300 UPLC column packed with a C4 stationary phase (2.1×50 mm, 1.7 μm) in conjunction with HRMS analysis by a Waters Xero-G2 quadropole-TOF electrospray mass spectrometer was used to detect and analyze protein-drug adducts. Each enzyme (2 μM) in 25 mM Tris buffer, pH 8, was incubated in the absence or presence of drugs (50 μM) at room temperature for 5 hours. Trifluoroacetic acid (0.1% final) was used to quench the reactions, samples were filtered through a 0.22 um filter and analyzed using UPLC-MS as follows: Mobile phase: 0-1 min 90% water+10% ACN+0.1% formic acid, 1-7.5 min gradient up to 20% water+80% ACN+0.1% formic acid, 7.5-8.4 min 20% water+80% ACN+0.1% formic acid, 8.4-8.5 min gradient up to 90% water+10% ACN+0.1% formic acid, 8.5-10 min 90% water+10% ACN+0.1% formic acid. Flow rate=0.3 mL min^−1. T=60° C.

The next assay concerns LdtPa. Kind of assay: UPLC-MS analysis of protein-drug adducts, LdtPa. The class given is binding, P. aeruginosa.
The target of assay [5] is T3, LdtMt2 (Mycobacterium tuberculosis, UniProt I6Y9J2). The assay is classed as binding, M. tuberculosis. The following applies: for Kd: 24° C., tris pH 8.0.
T3 sequence (I6Y9J2 56-408 limits assumed): as above
The target of assay [6] is LdtMab2 (Mycobacteroides abscessus, UniProt B1MMQ4). In words: Isothermal titration calorimetry, binding to LdtMab2. Also noted: species or system M. abscessus. As to conditions: ITC, 24° C., tris pH 8.0.
LdtMab2 (Mycobacteroides abscessus, UniProt B1MMQ4), sequence (B1MMQ4 62-406 limits assumed): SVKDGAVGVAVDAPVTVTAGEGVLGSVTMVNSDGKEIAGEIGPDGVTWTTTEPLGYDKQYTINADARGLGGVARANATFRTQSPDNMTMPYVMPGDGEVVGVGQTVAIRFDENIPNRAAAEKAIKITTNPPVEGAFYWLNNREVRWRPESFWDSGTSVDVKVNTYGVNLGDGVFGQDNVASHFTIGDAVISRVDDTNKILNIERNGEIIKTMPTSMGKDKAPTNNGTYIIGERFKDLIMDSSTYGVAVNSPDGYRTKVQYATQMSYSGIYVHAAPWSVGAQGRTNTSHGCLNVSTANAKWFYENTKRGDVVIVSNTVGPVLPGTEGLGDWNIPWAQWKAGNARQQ
Assay [7] has as its target T3, LdtMt2. In words: biochemical. More on the design: species or system M. tuberculosis.
For assay [8], the system named is M. tuberculosis, M. abscessus, A. baumannii, K. pneumoniae, E. cloacae, P. aeruginosa, E. faecalis and S. aureus. Kind of assay: Minimum inhibitory concentration (MIC90), broth dilution, panel of pathogens. The following applies: panel of tested pathogens. The class given is cell-based.
Assay [9] concerns the target T4, LdtMt1 (Mycobacterium tuberculosis, UniProt O53638). In words: biochemical. The class given is binding, M. tuberculosis.
For assay [10], the target named is T3, LdtMt2. The class given is binding, M. tuberculosis.
In assay [11] the target is T2, LdtMab1. In words: Isothermal titration calorimetry, binding to LdtMab1. As to conditions: ITC, 24° C., tris pH 8.0. (ITC needs no label: the signal is the heat of the interaction.)
Assay [12] deals with T4, LdtMt1. The assay is classed as binding, M. tuberculosis.
Another assay relates to M. tuberculosis. The assay is classed as in vivo, BALB/c mice.
[13] abbreviates: 10 μM LdtMt2, MES pH 6.5, 10° C.
Where [14] appears, read: competition: equimolar mixture of doripenem, biapenem, faropenem and tebipenem, within one minute.
Where [15] appears, read: equimolar mixture of amoxicillin, cephalothin, aztreonam and faropenem.

Where two headings read alike, the source gives them in different places.

T4 sequence (O53638 32-251 limits assumed): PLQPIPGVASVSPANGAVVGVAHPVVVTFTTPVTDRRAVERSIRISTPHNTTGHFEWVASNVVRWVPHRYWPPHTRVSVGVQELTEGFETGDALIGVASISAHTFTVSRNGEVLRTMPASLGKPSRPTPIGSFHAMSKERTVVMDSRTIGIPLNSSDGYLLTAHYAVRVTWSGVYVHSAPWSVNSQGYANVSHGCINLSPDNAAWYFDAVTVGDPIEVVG
T2 sequence (B1MDC1 entry or part of it): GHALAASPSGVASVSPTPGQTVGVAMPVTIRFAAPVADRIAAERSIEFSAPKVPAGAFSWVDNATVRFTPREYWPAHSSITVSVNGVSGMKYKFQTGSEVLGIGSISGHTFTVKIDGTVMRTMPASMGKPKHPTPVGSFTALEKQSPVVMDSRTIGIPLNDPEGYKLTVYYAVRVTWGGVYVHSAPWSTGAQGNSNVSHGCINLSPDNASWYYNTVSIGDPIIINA
LdtMab1, wild-type (MAB_3165c, orthologue of LdtMt1), sequence (B1MDC1 21-248): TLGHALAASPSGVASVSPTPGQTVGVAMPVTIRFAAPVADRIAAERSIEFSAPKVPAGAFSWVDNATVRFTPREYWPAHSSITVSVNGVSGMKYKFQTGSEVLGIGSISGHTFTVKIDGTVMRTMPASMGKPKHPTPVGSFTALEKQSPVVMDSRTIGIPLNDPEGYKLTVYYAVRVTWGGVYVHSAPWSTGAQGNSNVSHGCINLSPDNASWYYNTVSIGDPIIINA

For the compound `CC1(C)S[C@@H]2[C@H](NC(=O)[C@H](N)c3ccc(O)cc3)C(=O)N2[C@H]1C(=O)O` [Amoxicillin], the Kd – broadly, the constant that tells how readily two partners part at equilibrium – in [1] came out at 1290 µM.

Regarding `CC(=O)OCC1=C(C(=O)O)N2C(=O)[C@@H](NC(=O)Cc3cccs3)[C@H]2SC1` [Cephalothin], the Kd stood at 200 µM in [2] and 30.3 µM in assay [1].

Take `COC(=O)CSC1=C(C(=O)[O-])N2C(=O)[C@H]([C@@H](C)O)[C@H]2[C@H]1C.[Na+]` [T205, sodium (4R,5S,6S)-6-((R)-1-hydroxyethyl)-3-((2-methoxy-2-oxoethyl)thio)-4-methyl-7-oxo-1-azabicyclo[3.2.0]hept-2-ene-2 carboxylate]: the “reaction and covalent adduct formation” value on LdtMab1 [3] is “reacted and formed covalent adducts”; in the assay with LdtMab2 [4], “did not react”; in the assay on LdtKp, “reacted and formed covalent adducts”; with LdtCl, “reacted and formed covalent adducts”; with LdtPa it was “reacted and formed covalent adducts”. The same compound had a Kd in assay [2] of 155 µM.

On to `CCCOC(=O)CSC1=C(C(=O)O)N2C(=O)[C@H]([C@@H](C)O)[C@H]2[C@H]1C` [T206], for which the results for the Kd result (on LdtMt2 [5] (ITC); on LdtMab2 [6]; in [2]) were “low to sub μM range”, “low to sub μM range” and 2.8 µM, respectively. The “reaction and covalent adduct formation” value is “reacted and formed covalent adducts” at LdtMab1 [3]; “did not react” with LdtMab2 [4]; “reacted and formed covalent adducts” with LdtKp; “reacted and formed covalent adducts” in the assay on LdtCl; “did not react” in the assay with LdtPa.

Consider `C[C@@H](O)[C@H]1C(=O)N2C(C(=O)O)=C(SCC(=O)OC3CCCCC3)[C@H](C)[C@H]12` [T208], for which the Kd entry was “low to sub μM range” at LdtMt2 [5] (ITC), “low to sub μM range” on LdtMab2 [6] and 5.65 µM in assay [2]. For the same compound, the Kapp on LdtMt2 [7] (setting [13]) turned out to be 4.8 ± 2.9 µM. For the same compound, on LdtMt2 [7] (10 μM LdtMt2, MES pH 6.5, 10° C., read-out: kinact (converted)), the kinact (usually the rate constant of inactivation at saturating inhibitor) was 0.045 s⁻¹. Further, the “reaction and covalent adduct formation” value at LdtMab1 [3] was “reacted and formed covalent adducts”; with LdtMab2 [4] it was “did not react”; in the assay with LdtKp it was “reacted and formed covalent adducts”; in the assay on LdtCl it was “reacted and formed covalent adducts”; with LdtPa it was “reacted and formed covalent adducts”.

As for `CSC1=C(C(=O)O)N2C(=O)[C@H]([C@@H](C)O)[C@H]2[C@H]1C` [T210], the Kd entry at LdtMab2 [6] was “low to sub μM range”. Further, the Kapp at LdtMt2 [7] (setting [13]) came out at 20.8 ± 3.3 µM. Besides, the “reaction and covalent adduct formation” value at LdtMab1 [3] is “reacted and formed covalent adducts”; in the assay with LdtMab2 [4], “did not react”; in the assay with LdtKp, “reacted and formed covalent adducts”; in the assay on LdtCl, “reacted and formed covalent adducts”; in the assay with LdtPa, “reacted and formed covalent adducts”.

Take `C[C@@H](O)[C@H]1C(=O)N2C(C(=O)O)=C(SCC(F)(F)F)[C@H](C)[C@H]12` [T221]: in assay [8], the “minimum inhibitory concentration (MIC90) / growth inhibition” value is recorded as “inhibit growth of all tested pathogens except P. aeruginosa”.

Consider `C[C@@H](O)[C@H]1C(=O)N2C(C(=O)O)=C(SCc3ccccc3)[C@H](C)[C@H]12` [T222], for which, in assay [8], the “minimum inhibitory concentration (MIC90) / growth inhibition” value was “inhibit growth of all tested pathogens except P. aeruginosa”.

Turning to `C[C@@H](O)[C@H]1C(=O)N2C(C(=O)O)=C(SCCc3ccccc3)[C@H](C)[C@H]12` [T223], in [8], the “minimum inhibitory concentration (MIC90) / growth inhibition” value is recorded as “inhibit growth of all tested pathogens except P. aeruginosa”.

As for `C[C@@H](O)[C@H]1C(=O)N2C(C(=O)O)=C(Sc3c[nH]c4ccccc34)[C@H](C)[C@H]12` [T224], in assay [8], the “minimum inhibitory concentration (MIC90) / growth inhibition” value is reported as “inhibit growth of all tested pathogens except P. aeruginosa”.

Take `CC1(C)S[C@@H]2[C@H](NC(=O)[C@H](N)c3ccc(O)cc3)C(=O)N2[C@H]1C(=O)O` [amoxicillin]: the heat of association result on LdtMt1 [9] (ITC) and on LdtMt2 [5] (ITC) was “could not be detected” in each case.

In the case of `C[C@H]1[C@H](NC(=O)/C(=N\OC(C)(C)C(=O)O)c2csc(N)n2)C(=O)N1S(=O)(=O)O` [aztreonam], the heat of association entry at LdtMt1 [9] (ITC) and at LdtMt2 [5] (ITC) was “could not be detected” throughout.

Turning to `CC(=O)OCC1=C(C(=O)O)N2C(=O)[C@@H](NC(=O)Cc3cccs3)[C@H]2SC1` [cephalothin], the heat of association entry on LdtMt1 [9] and at LdtMt2 [5] was “could not be detected” throughout.

With `C[C@@H](O)[C@H]1C(=O)N2C(C(=O)O)=C(S[C@@H]3CN[C@H](CNS(N)(=O)=O)C3)[C@H](C)[C@H]12` [doripenem], at LdtMt2 [7] (pH 6.5), the Kapp came to 32.6 ± 11.3 µM and the kinact is 0.122 s⁻¹. In addition, at LdtMt2 [7] (read-out: kinact/Kapp ratio), the kinact/KI is 3670 M⁻¹ s⁻¹. Further, the “mass of stable adduct with wild-type LdtMt2” value on LdtMt2 [10] came out at 123 Da.

On to `C[C@@H](O)[C@H]1C(=O)N2C(C(=O)O)=C([C@H]3CCCO3)S[C@H]12` [faropenem], for which the Kd on LdtMt1 [9] (ITC, 24° C., tris pH 8.0, single binding modality) came out at 3.98 µM; at LdtMab1 [11], 0.16 µM; on LdtMab2 [6] (read-out: Kd), 6.25 µM. At LdtMt2 [7] (setting [13]), the Kapp was 49.2 ± 11.9 µM. Also, the “adducts detected in competition” value at LdtMt1 [12], on LdtMt2 [10], at LdtMab1 [3], in the assay on LdtMab2 [4] (setting [15]), in the assay with LdtKp and with LdtCl (setting [15]) was “faropenem adducts gave the only masses we could detect” in each case. Further, the “proteins reacted exclusively with the drug” value on LdtMt1 [12], at LdtMt2 [10], at LdtMab1 [3], with LdtMab2 [4] (setting [14]), in the assay on LdtKp and in the assay on LdtCl (setting [14]) was 100% throughout. Further, the “mass of adduct with LdtMt1” value at LdtMt1 [12] (covalently attached to C226) came out at 86 Da. Besides, the “mass of stable adduct with wild-type LdtMt2” value on LdtMt2 [10] (UPLC-MS) is “+86 Da”. Moreover, the “gross pathology of lungs (tuberculous lesions)” value in the assay with M. tuberculosis (mouse, in vivo) was “developed tuberculous lesions in the lungs but their pathology and the bacterial burden were lower compared to untreated mice”. Besides, in the assay on M. tuberculosis (three weeks of treatment), the “M. tuberculosis burden in the lungs” value is reported as “lower compared to untreated mice”. Further, the “survival / overall health of infected mice” value in the assay with M. tuberculosis (used alone) is “prolonged the life of mice”.
